According to the Kinase Knowledgebase extract (Sharma et al. 2016):

target: MAPK14 (human) (UniProt Q16539); test: Inhibtion of MAPK14 Kinase Activity
Sequence (Q16539 whole entry, looked up): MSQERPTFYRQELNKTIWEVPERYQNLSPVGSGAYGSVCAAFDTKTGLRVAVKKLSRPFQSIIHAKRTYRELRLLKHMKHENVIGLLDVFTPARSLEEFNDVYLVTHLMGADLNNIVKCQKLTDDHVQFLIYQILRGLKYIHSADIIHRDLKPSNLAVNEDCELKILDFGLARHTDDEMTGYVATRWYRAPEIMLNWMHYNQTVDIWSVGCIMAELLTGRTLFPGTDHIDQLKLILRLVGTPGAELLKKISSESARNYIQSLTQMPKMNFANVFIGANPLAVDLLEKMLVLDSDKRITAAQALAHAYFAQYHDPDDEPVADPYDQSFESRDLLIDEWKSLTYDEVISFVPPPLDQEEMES

IC50, < 100 nM:
Nc1c(C(=O)c2ccc(F)cc2F)ccc(=O)n1-c1ccc(OCCCN[C@H](C(=O)OC2CCCC2)c2ccccc2)cc1
CC(C)(C)OC(=O)[C@@H](NCCCOc1cc(F)c(-n2c(N)c(C(=O)c3ccc(F)cc3F)ccc2=O)c(F)c1)C1CCCCC1
CC(C)C[C@H](NCc1ccc(-n2c(N)c(C(=O)c3ccc(F)cc3F)ccc2=O)cc1)C(=O)O
Nc1c(C(=O)c2ccc(F)cc2F)ccc(=O)n1-c1c(F)cc(OCCCN[C@H](C(=O)OC2CCCC2)C2CCCCC2)cc1F
CC(C)C[C@H](NC1CCC(Oc2cc(F)c(-n3c(N)c(C(=O)c4ccc(F)cc4)ccc3=O)c(F)c2)CC1)C(=O)OC1CCCC1 (some centres not stated)
Nc1c(C(=O)c2ccc(F)cc2)ccc(=O)n1-c1ccc(OCCCN[C@@H](Cc2ccccc2)C(=O)O)cc1
CC(C)(C)OC(=O)[C@@H](NCCCOc1cc(F)c(-n2c(N)c(C(=O)c3ccc(F)cc3F)ccc2=O)c(F)c1)c1ccccc1
Cc1cc(C(=O)c2ccc(=O)n(-c3c(F)cc(OCCCN[C@H](C(=O)O)c4ccccc4)cc3F)c2N)ccc1F
Nc1c(C(=O)c2ccc(F)cc2)ccc(=O)n1-c1c(F)cc(OC2CCC(N[C@H](C(=O)OC3CCCC3)c3ccccc3)CC2)cc1F (some centres not stated)
Nc1c(C(=O)c2ccc(F)cc2)ccc(=O)n1-c1c(F)cc(CN[C@@H](Cc2ccccc2)C(=O)O)cc1F
Nc1c(C(=O)c2ccc(F)cc2F)ccc(=O)n1-c1ccc(OCCCN[C@H](C(=O)O)c2ccccc2)cc1
Nc1c(C(=O)c2ccc(F)cc2F)ccc(=O)n1-c1ccc(CN[C@H](C(=O)OC2CCCC2)c2ccccc2)cc1
NCC[C@H](NCCCOc1cc(F)c(-n2c(N)c(C(=O)c3ccc(F)cc3F)ccc2=O)c(F)c1)C(=O)OC1CCCC1
Nc1c(C(=O)c2ccc(F)cc2)ccc(=O)n1-c1c(F)cc(OC2CCC(N[C@@H](Cc3ccccc3)C(=O)OC3CCCC3)CC2)cc1F (some centres not stated)
CC(C)C[C@H](NCCCOc1ccc(-n2c(N)c(C(=O)c3ccc(F)cc3F)ccc2=O)cc1)C(=O)OC1CCCC1
CC(C)(C)OC(=O)[C@H](Cc1ccccc1)NCCCOc1cc(F)c(-n2c(N)c(C(=O)c3ccc(F)cc3F)ccc2=O)c(F)c1
CC(C)C[C@H](NCCCOc1cc(F)c(-n2c(N)c(C(=O)c3ccc(F)cc3F)ccc2=O)c(F)c1)C(=O)OCCN1CCOCC1
CC(C)C[C@H](NCCCOc1ccc(-n2c(N)c(C(=O)c3ccc(F)cc3F)ccc2=O)cc1)C(=O)O
CC(C)C[C@H](NCCCOc1ccc(-n2c(N)c(C(=O)c3ccc(F)cc3)ccc2=O)cc1)C(=O)O
CC(C)C[C@H](NCCCOc1cc(F)c(-n2c(N)c(C(=O)c3ccc(F)cc3)ccc2=O)c(F)c1)C(=O)OC1CCCC1
Cc1cc(C(=O)c2ccc(=O)n(-c3ccc(CN[C@@H](Cc4ccccc4)C(=O)O)cc3)c2N)ccc1F
Nc1c(C(=O)c2ccc(F)cc2)ccc(=O)n1-c1ccc(OCCCN[C@H](C(=O)OC2CCCC2)c2ccccc2)cc1
